Assay results published in PMC6537702, “Design, synthesis, molecular modelling, and biological evaluation of novel substituted pyrimidine derivatives as potential anticancer agents for hepatocellular carcinoma” (Journal of Enzyme Inhibition and Medicinal Chemistry, 2019).
Converted amounts (≈) assume the structure as drawn. Where two headings read alike, the source gives them in different places.

How the values were obtained:
[1] = test system: HepG2 cell line; assay: Resazurin cell growth inhibition assay, HepG2; assay type: cell-based, human; details: Homo sapiens
Excerpt: (§1) All compounds 2a-e, 3a-d, and PPAD’s 4a-t were subjected to a screening system for evaluation of their anticancer activity against cell line of human cancer, namely liver (HepG2 and Huh-7) cancer and normal fibroblast cells obtained from the German Cancer Research Center (DKFZ), following the Resazurin Cell Growth Inhibition Assay[45] in comparison to the standard treatment using DOX (see Supplementary).
(§2) Cell culture and treatment
(§3) All reagents were handled in a sterile fume hood. DMEM medium, and fetal bovine serum (FBS) were purchased from Gibco;phosphate-buffered saline pH 7.4 (PBS) and trypsin-EDTA were obtained from Sigmae Aldrich. Alamar Blue or Resazurin (Promega,Mannheim, Germany) reduction assay was used to assess the cytotoxicity of the studied samples. The growth medium (DMEMmedium with 10% FBS, 10 0 U/mL penicillin, and 10 0 mg/L streptomycin), and alamar blue were stored at 48 C, while trypsineEDTA and FBS were stored frozen at 208C and thawed before use; PBS was stored at room temperature. The Hep-G2, Huh-7 and normal fibroblast cells were obtained from the German Cancer Research Center (DKFZ).Cells were cultured in 50 cm2 culture flask s (Corning) using DMEM medium supplemented with 10% FBS, penicillin (10 0 IU/mL), and streptomycin ([…]). The culture was maintained at 37 C atmosphere of 5% CO2 and 95% relative humidity. The cells were transferred to a new fl ask every 2 days and treated with trypsineEDTA to detach them from the flask . Cells were counted under a microscope using a hemacytometer (Hausser Scientific).Cell solutions were diluted with growth medium to a concentration of 1 *10^5 cells/mL and transferred to a 96-well plate, and treated with gradient concentrations of test compounds.
(§4) Resazurin cell growth inhibition assay
(§5) Alamar Blue or Resazurin (Promega, Mannheim, Germany) reduction assay was used to assess the cytotoxicity of the studied samples. The assay tests cellular viability and mitochondrial function. Briefly y, adherent cells were grown in tissue culture flask s, and then harvested by treating the fl asks with 0.025% trypsin and0.25 mM EDTA for 5 min. Once detached, cells were washed, counted and an aliquot (5 * 103cells) was placed in each well of a96-well cell culture plate in a total volume of […]. Cells were allowed to attach overnight and then treated with samples. The final concentration of samples ranged from 0 to 10 0 mM. After 4 8 h,[…] Resazurin 0.01% w/v solution was added to each well and the plates were incubated at 37C for 1 -2 h. Fluorescence was measured on an automated 96-well Infinite M2000 ProTM plate reader (Tecan, Crailsheim, Germany) using an excit ation wave-length of 54 4 nm and an emission wavelength of 590 nm. Doxorubicin was used as positive control. Each assay was done at least three times, with two replicates each. The viability was compared based on a comparison with untreated cells. IC50(on cancer cells) were the concentration of sample required to inhibit 50% of the cell proliferation and were calculated from a calibration curve by a linear regression using Microsoft Excel

[2] = test system: Huh-7 cell line; assay: Resazurin cell growth inhibition assay, Huh-7; assay type: cell-based, human; details: Homo sapiens
Excerpt: as §1, §2, §3, §4, §5

[3] = Resazurin cell growth inhibition assay, normal fibroblast cells; assay type: cell-based; details: M ± SEM of three independent experiments, read-out: Cytotoxic activity IC50, Fibroblast
Excerpt: as §1, §2, §3, §4, §5

[4] = test system: caspase 3/7 activity in HepG2 cells; assay: Caspase-Glo 3/7 assay, HepG2; assay type: cell-based, human; details: 24 h incubation; 2 IC50, IC50, ½ IC50; vs DMSO solvent control; p < .05, n = 3
Excerpt: The influence of our test samples on caspase 3/7 activity in liver cancer cells (HepG2 cells) was detected using Caspase-Glo 3/7 Assay kit (Promega, Madison, WI) as previously described[45] (see Supplementary).
as §2, §3, §4
Alamar Blue or Resazurin (Promega, Mannheim, Germany) reduction assay was used to assess the cytotoxicity of the studied samples. The assay tests cellular viability and mitochondrial function. Briefly y, adherent cells were grown in tissue culture flask s, and then harvested by treating the fl asks with 0.025% trypsin and0.25 mM EDTA for 5 min. Once detached, cells were washed, counted and an aliquot (5 * 103cells) was placed in each well of a96-well cell culture plate in a total volume of […]. Cells were allowed to attach overnight and then treated with samples. The final concentration of samples ranged from 0 to 10 0 mM. […] Fluorescence was measured on an automated 96-well Infinite M2000 ProTM plate reader (Tecan, Crailsheim, Germany) using an excit ation wave-length of 54 4 nm and an emission wavelength of 590 nm. […]
The influence of our test samples on cas pase 3/7 activity in […] was detected using Caspase -Glo 3/7 Assay kit (Promega). […] Luminescence was measured using well Infinite M2000 Pro TM instrument (Tecan).Caspase 3/7 activity was expressed as percentage of the unt reated

[5] = test system: caspase 3/7 activity in Huh-7 cells; assay: Caspase-Glo 3/7 assay, Huh-7; assay type: cell-based, human; details: 24 h incubation; 2 IC50, IC50, ½ IC50; vs DMSO solvent control; p < .05, n = 3
[6] = HepG2, 48 h, resazurin assay, 48 h, M ± SEM of three independent experiments, read-out: Cytotoxic activity IC50, HepG2 cell line
[7] = HepG2, converted from μg/mL, read-out: IC50 against HepG2 cell line, equivalent in μM
[8] = Huh-7, 48 h, resazurin assay, 48 h, M ± SEM of three independent experiments, read-out: Cytotoxic activity IC50, Huh-7 cell line
[9] = Huh-7, converted from μg/mL, read-out: IC50 against Huh-7 cell line, equivalent in μM

Row | Compound | IC50 [1, 7] [µM] | IC50 [2, 9] [µM] | melting point [°C] | IC50 [1, 6] [µg/mL] | IC50 [2, 8] [µg/mL] | IC50 at 48 h [3] [µg/mL] | activation of caspase 3/7, HepG2 cell line [4] | activation of caspase 3/7, Huh-7 cell line [5]
1 | N#Cc1c(-c2ccc(F)cc2)nc(N2N=C(c3c4ccccc4cc4ccccc34)CC2c2ccc(F)cc2)[nH]c1=O (centres unmarked) [Compound 4e, 2-[3-Anthracene-9-yl-5–(4-fluoro-phenyl)-4,5-dihydro-pyrazol-1-yl]-4–(4-fluoro-phenyl)-6-oxo-1,6-dihydro-pyrimidine-5-carbonitrile] | 9.6 | 11.1 | – | 5.34 ± 0.21 | 6.13 ± 1.01 | 24.1 ± 4.63 (≈ 43.6 µM) | significant increase | significant increase
2 | N#Cc1c(-c2c[nH]c3ccccc23)nc(N2N=C(c3c4ccccc4cc4ccccc34)CC2c2ccc(F)cc2)[nH]c1=O (centres unmarked) [Compound 4i, 2-[3-Anthracene-9-yl-5–(4-fluoro-phenyl)-4,5-dihydro-pyrazol-1-yl]-4-(1H-indol-3-yl)-6-oxo-1,6-dihydro-pyrimidine-5-carbonitrile] | – | 11.2 | 184 to 185 | 9.54 ± 1.24 | 6.47 ± 0.41 | 31.4 ± 2.07 (≈ 54.7 µM) | significant increase | significant increase
3 | COc1cc(-c2nc(N3N=C(c4c5ccccc5cc5ccccc45)CC3c3ccc(F)cc3)[nH]c(=O)c2C#N)cc(OC)c1OC (centres unmarked) [Compound 4m, 2-[3-Anthracene-9-yl-5–(4-fluoro-phenyl)-4,5-dihydro-pyrazol-1-yl]-6-oxo-4–(3,4,5-trimethoxy-phenyl)-1,6-dihydro-pyrimidine-5-carbonitrile] | – | – | 148 to 150 | 8.12 ± 1.82 | 7.5 ± 0.98 | 24.1 ± 4.34 (≈ 38.6 µM) | significant increase | significant increase
4 | COc1cc(-c2nc(N3N=C(c4c5ccccc5cc5ccccc45)CC3c3ccc(N(C)C)cc3)[nH]c(=O)c2C#N)cc(OC)c1OC (centres unmarked) [Compound 4n, 2-[3-Anthracene-9-yl-5–(4-dimethylamino-phenyl)-4,5-dihydro-pyrazol-1-yl]-6-oxo-4–(3,4,5-trimethoxy-phenyl)-1,6-dihydro-pyrimidine-5-carbonitrile] | – | – | 170 to 172 | 9.66 ± 1.31 | 9.54 ± 2.16 | 18.6 ± 3.17 (≈ 28.5 µM) | – | –
5 | COc1cc(-c2nc(N3N=C(c4c5ccccc5cc5ccccc45)CC3c3cc(OC)c(OC)c(OC)c3)[nH]c(=O)c2C#N)cc(OC)c1OC (centres unmarked) [Compound 4o, 2-[3-Anthracene-9-yl-5–(3,4,5-trimethoxy-phenyl)-4,5-dihydro-pyrazol-1-yl]-6-oxo-4–(3,4,5-trimethoxy-phenyl)-1,6-dihydro-pyrimidine-5-carbonitrile] | – | – | 165 to 166 | 10.2 ± 1.02 | 14.5 ± 1.24 | 28.1 ± 3.31 (≈ 40.2 µM) | – | –

Now from value to compound, other results behind:

Row | IC50 [1, 7] [µM] | IC50 [2, 9] [µM] | melting point [°C] | Compound | IC50 [1, 6] [µg/mL] | IC50 [2, 8] [µg/mL] | IC50 at 48 h [3] [µg/mL] | activation of caspase 3/7, HepG2 cell line [4] | activation of caspase 3/7, Huh-7 cell line [5]
6 | 11.8 | – | 182 to 184 | CN(C)c1ccc(-c2nc(N3N=C(c4c5ccccc5cc5ccccc45)CC3c3ccc(F)cc3)[nH]c(=O)c2C#N)cc1 (centres unmarked) [Compound 4q, 2-[3-Anthracene-9-yl-5–(4-fluoro-phenyl)-4,5-dihydro-pyrazol-1-yl]-4–(4-dimethylamino-phenyl)-6-oxo-1,6-dihydro-pyrimidine-5-carbonitrile] | 6.85 ± 0.85 | 8.66 ± 1.52 | 34.3 ± 6.42 (≈ 59.3 µM) | significant increase | significant increase
7 | – | – | 174 to 175 | CN(C)c1ccc(-c2nc(N3N=C(c4c5ccccc5cc5ccccc45)CC3c3ccc(N(C)C)cc3)[nH]c(=O)c2C#N)cc1 (centres unmarked) [Compound 4r, 2-[3-Anthracene-9-yl-5–(4-dimethylamino-phenyl)-4,5-dihydro-pyrazol-1-yl]-4–(4-dimethylamino-phenyl)-6-oxo-1,6-dihydro-pyrimidine-5-carbonitrile] | 8.44 ± 1.1 | 7.61 ± 0.21 | 25.2 ± 5.24 (≈ 41.8 µM) | – | –
8 | – | – | 160 to 162 | COc1cc(C2CC(c3c4ccccc4cc4ccccc34)=NN2c2nc(-c3ccc(N(C)C)cc3)c(C#N)c(=O)[nH]2)cc(OC)c1OC (centres unmarked) [Compound 4s, 2-[3-Anthracene-9-yl-5–(3,4,5-trimethoxy-phenyl)-4,5-dihydro-pyrazol-1-yl]-4–(4-dimethylamino-phenyl)-6-oxo-1,6-dihydro-pyrimidine-5-carbonitrile] | 8.66 ± 1.44 | 11.3 ± 0.61 | 20.3 ± 4.15 (≈ 31.2 µM) | – | –
9 | – | – | 190 to 191 | CN(C)c1ccc(-c2nc(N3N=C(c4c5ccccc5cc5ccccc45)CC3c3c[nH]c4ccccc34)[nH]c(=O)c2C#N)cc1 (centres unmarked) [Compound 4t, 2-[3-Anthracene-9-yl-5-(1H-indol-3-yl)-4,5-dihydro-pyrazol-1-yl]-4–(4-dimethylamino-phenyl)-6-oxo-1,6-dihydro-pyrimidine-5-carbonitrile] | 9.21 ± 1.05 | 7.42 ± 1.48 | 23.5 ± 3.82 (≈ 39.2 µM) | – | –
